According to the supplement of paper PMC4121296:

Tests used:
Conditions in all cases: exposure: 5-72 hpf
[1] = system: Danio rerio embryo (fli1:egfp); assay: pericardial area at 72 hpf (image area units (not stated)); higher = larger pericardial area (edema)
Method: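 fli1:egfp zebrafish embryos exposed 5-72 hpf to chemical (0.05-50 µM, 0.1% DMSO); pericardial area at 72 hpf measured by semi-automated MetaXpress journal (increase indicates edema).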

[2] = system: Danio rerio embryo (fli1:egfp); assay: body length at 72 hpf (µm); higher = longer body (less growth inhibition)
Method: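 Transgenic fli1:egfp zebrafish embryos (one per well, 384-well plate) exposed statically from 5 to 72 hpf at 28 °C to chemical (0.05-50 µM, 0.1% DMSO); at 72 hpf anesthetized and imaged on ImageXpress; body length of live, hatched, correctly oriented embryos measured by automated MetaXpress journal. Dead/unhatched/misoriented embryos have no value.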

[3] = system: Danio rerio embryo (fli1:egfp); assay: intersegmental vessel area normalized to body length at 72 hpf (ISV area / body length (normalized units)); higher = more vessel area
Method: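 fli1:egfp zebrafish embryos exposed 5-72 hpf to chemical (0.05-50 µM, 0.1% DMSO); intersegmental vessel (ISV) eGFP area quantified by MetaXpress journal at 72 hpf and normalized to body length.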

[4] = system: Danio rerio embryo (fli1:egfp); assay: arterial (dorsal aorta) circulation score at 72 hpf (normalized DA-Max (arbitrary units)); higher = more circulation
Method: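 fli1:egfp zebrafish embryos exposed 5-72 hpf to chemical (0.05-50 µM, 0.1% DMSO); arterial circulation at 72 hpf quantified from stream acquisitions of the dorsal aorta by FFT-based analysis (DA-Max, normalized dorsal aorta signal); only concentrations passing survival/body-length criteria analyzed.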

[5] = system: Danio rerio embryo (fli1:egfp); assay: heart rate at 72 hpf (beats per minute); higher = faster heart rate
Method: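 fli1:egfp zebrafish embryos exposed 5-72 hpf to chemical (0.05-50 µM, 0.1% DMSO) in 384-well plates; heart rate at 72 hpf quantified from stream acquisitions by semi-automated MetaXpress journal (peak counting); only embryos in concentrations passing survival/body-length criteria analyzed.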

CCCCSP(=O)(SCCCC)SCCCC [Tribufos]
Conditions	arterial, [4]	body length at 72 hpf, [2]	heart rate at 72 hpf, [5]	intersegmental vessel area normalized, [3]	pericardial area at 72 hpf, [1]
0.05 µM	11.1	2900	166	79.6	13400
0.098 µM	14.1	2950	161	84.8	13600
0.195 µM	14.9	2990	182	92.3	14700
0.39 µM	15.4	2940	169	83.8	13700
0.78 µM	14.8	2940	167	86	14600
1.56 µM	16.1	2910	164	87.5	14200
3.125 µM	14.5	2980	172	81.8	13300
6.25 µM	15	2970	176	94.4	15200
12.5 µM	13.9	2870	166	81.3	13400

CO/N=C(/C1=NOCCO1)c1ccccc1Oc1ncnc(Oc2ccccc2Cl)c1F [Fluoxastrobin]
Conditions	arterial, [4]	body length at 72 hpf, [2]	heart rate at 72 hpf, [5]	intersegmental vessel area normalized, [3]	pericardial area at 72 hpf, [1]
0.0061 µM	13.7	2970	182	70.3	12700
0.0122 µM	15	2930	189	71.6	14000
0.0244 µM	11.9	2900	188	76	13500
0.05 µM	15.2	2970	194	79.4	14300
0.098 µM	12.6	2980	198	82.8	14900
0.195 µM	16.2	2990	198	75.3	14200
0.39 µM	13.1	2970	194	77.9	15000
0.78 µM	13.9	2940	191	67.2	13900
1.56 µM	12.1	2910	177	80.3	17100
3.125 µM	6.76	3010	161	64.8	28800

O=C(O)c1cc(Oc2ccc(C(F)(F)F)cc2Cl)ccc1[N+](=O)[O-] [Acifluorfen]
Conditions	arterial, [4]	body length at 72 hpf, [2]	heart rate at 72 hpf, [5]	intersegmental vessel area normalized, [3]	pericardial area at 72 hpf, [1]
0.05 µM	16.3	2970	168	81.7	14900
0.098 µM	14.7	3000	169	82.8	17600
0.195 µM	14.4	3030	166	89.2	16700
0.39 µM	15.6	3000	168	82.3	16700
0.78 µM	14.4	2970	167	92.9	15600
1.56 µM	15.9	3040	164	82.3	16400
3.125 µM	15.2	3030	164	85.2	17500
6.25 µM	14.2	3030	177	89.2	19400
12.5 µM	16.1	3020	175	89.5	15900
25 µM	15.6	2960	175	89.3	15500
50 µM	14.5	2980	180	99.8	15800

CCCCCOC(=O)COc1cc(N2C(=O)C3=C(CCCC3)C2=O)c(F)cc1Cl [Flumiclorac-pentyl]
Conditions	arterial, [4]	body length at 72 hpf, [2]	heart rate at 72 hpf, [5]	intersegmental vessel area normalized, [3]	pericardial area at 72 hpf, [1]
0.05 µM	11.7	3040	166	55.7	14500
0.098 µM	10.9	2980	159	66.5	15200
0.195 µM	10.3	2960	166	62.8	16200
0.39 µM	10.7	2950	175	66.4	15300
0.78 µM	9.99	3000	170	60.7	15200
1.56 µM	11.6	3000	178	62.7	16100
3.125 µM	11	2990	182	61.8	17000
6.25 µM	8.2	2960	185	65.1	16400
12.5 µM	8.36	3000	182	69.4	17700

CC(C)[C@H](C(=O)O[C@H](C#N)c1cccc(Oc2ccccc2)c1)c1ccc(Cl)cc1 [Esfenvalerate]
Conditions	arterial, [4]	body length at 72 hpf, [2]	heart rate at 72 hpf, [5]	intersegmental vessel area normalized, [3]	pericardial area at 72 hpf, [1]
0.05 µM	9.88	3070	184	72.5	14800
0.098 µM	10.8	3140	182	76.8	16600
0.195 µM	10.1	3150	196	76.2	14700
0.39 µM	10.9	3090	198	76.1	15300
0.78 µM	10.1	3140	195	75.7	15800
1.56 µM	10.3	3160	194	63.9	15900
3.125 µM	13.2	2970	188	88.9	14100
6.25 µM	11.9	2830	188	88.2	14600
12.5 µM	–	2760	–	–	–
25 µM	–	2640	–	–	–
50 µM	–	2750	–	–	–

CO/N=C(/C(=O)OC)c1ccccc1CO/N=C(\C)c1cccc(C(F)(F)F)c1 [Trifloxystrobin]
Conditions	arterial, [4]	body length at 72 hpf, [2]	heart rate at 72 hpf, [5]	intersegmental vessel area normalized, [3]	pericardial area at 72 hpf, [1]
0.05 µM	12.1	2950	172	71	12800
0.098 µM	11.6	3060	171	73.5	10600
0.195 µM	15.7	3030	167	70.2	12300
0.39 µM	15	2970	173	67.6	12200
0.78 µM	14.9	3000	166	68.9	13900
